Data set [1] in a line: CUPRAC assay (antioxidant activity). The conditions noted are these: standard substance. On the procedure: To create the CUPRAC reagent, a conical flask wrapped in aluminum foil was used. Equal volumes of a 7.5 mM neocuproine solution in 96% ethanol, a 10 mM aqueous copper chloride solution and an ammonium acetate buffer solution (pH = 7) were added to the flask. In the 96-well plate, 50.0 µL of the test sample and 150.0 µL of the CUPRAC reagent solution were combined. The blank consisted of a mixture of the CUPRAC reagent and the solvent used for extraction. The assay was replicated six times. The plate was covered with aluminum foil, shaken for 5 min at 25 °C and then incubated at room temperature for 25 min. The absorbance was measured at 450 nm using a plate reader (Multiskan GO 1510, Thermo Fisher Scientific, Vantaa, Finland). […] This value was determined using a polynomial trend line.

Data set [2] is described as follows: DPPH assay (free radical scavenging). The conditions noted are these: standard substance. The protocol:
In summary, a 96-well plate was used for the assay. Each well contained 25.0 μL of the test sample and 175.0 μL of a DPPH radical solution (3.9 mg/50 mL) in methanol. The control sample consisted of the DPPH radical solution and the solvent used for extraction, while the blank represented the absorbance value obtained from combining 25.0 μL of the extraction solvent with 175.0 μL of the solvent used to dissolve the DPPH radical (methanol). This procedure was repeated six times. The plate was shaken for 5 min at 25 °C and then incubated for 25 min at room temperature. The absorbance was measured at 517 nm using a plate reader (Multiskan GO 1510, Thermo Fisher Scientific, Vantaa, Finland). The free radical scavenging capacity (%) of the test extracts and the standard substance was calculated using the following equation:(1) […] activity%=A0-A1/A0×100% where A0 is the absorbance of the control, and A1 is the absorbance of the tested sample.

Data set [3] deals with collagenase. Description: Collagenase inhibition assay. The format is biochemical. The conditions noted are these: positive control. On the procedure: The collagenase inhibitory activity of each sample was determined in vitro according to Widodo et al. with some modifications. In summary, 15.0 μL of enzyme, 60 μL of tricine buffer (pH 7.5) and 30 μL of extracts (50 mg/mL) were mixed and incubated at 37 °C for 20 min. Next, 20 μL of FALGPA (0.5 mM) was added to the mixture, and the absorbance was immediately measured at 325 nm using the plate reader (Multiskan GO 1510, Thermo Fisher Scientific, Vantaa, Finland). The absorbance was measured again after 20 min of incubation at 37 °C following the addition of the substrate. A control sample containing only the solvent used instead of the extract was performed, and the results were reduced by the value of the blank representing the enzyme-free sample. The positive control was a sample containing a solution of epigallocatechin gallate instead of the extract tested. The collagenase inhibition rate (presented for the final concentration of substance in enzymatic reaction) expressed as a percentage of inhibition was calculated using Formula (2).

Data set [4] is described as follows: Parallel artificial membrane permeability assay (PAMPA-GIT, PAMPA-BBB, PAMPA-SKIN). The format is in vitro ADME. The conditions noted are these: isoflavones from red clover extracts, donor 12.5 mg/mL, pH 7.4, 4 h at 37 °C, BBB and SKIN membranes; for Papp at 4 h, 12.5 mg/mL: PAMPA, read-out: Apparent permeability coefficient (Papp). The protocol: Then, 200 μL of the donor solution was added to the donor wells. Subsequently, each filter membrane of the top plate was coated with a suitable lipid solution, i.e., 5 μL BBB, GIT or preincubated with hydration buffer 24 h earlier for SKIN assay (Pion Inc., Billerica, MA, USA), and the acceptor well was filled with 200 μL of acceptor fluid. The acceptor plate and the donor plate were coupled together and incubated for 4 h at 37 °C. After incubation, the plates were separated, and the concentrations of compounds that crossed the membrane were determined using HPLC. To calculate Papp, the following equation was used:(3) Papp=−ln1−CA/Cequilibrium/S×1/VD+1/VA×t where Papp—effective permeability coefficient (cm/s), VD—donor volume, VA—acceptor volume, Cequilibrium—equilibrium concentration, S—membrane area, and t—incubation time (in seconds).
Samples were analyzed in triplicate.
(In general: In PAMPA a lipid-coated filter parts donor from acceptor wells.)

Details of data set [5]: method as in PMID 29504397. The conditions noted are these: rat study; cited from earlier work.

A value given as a limit tells only on which side of the number the result lay.

These results are taken from paper PMC10343205, “Multidirectional Effects of Red Clover (Trifolium pratense L.) in Support of Menopause Therapy” (Molecules, 2023).

As for `O=C1O[C@H]([C@@H](O)CO)C(O)=C1O` [Ascorbic acid], the “CUPRAC IC50” value in data set [1] is 73 ± 3 µg/mL. Further, the “DPPH IC50” value in data set [2] was 68 ± 5 µg/mL. Consider `O=C(O[C@@H]1Cc2c(O)cc(O)cc2O[C@@H]1c1cc(O)c(O)c(O)c1)c1cc(O)c(O)c(O)c1` [EGCG, epigallocatechin gallate], for which the “Collagenase inhibition IC50” value in data set [3] was “IC50 = 0.666 ± 0.007 mg/ml”.

On to `COc1ccc(-c2coc3cc(O)cc(O)c3c2=O)cc1` [biochanin A], for which the Papp (commonly the rate of passage across a membrane or cell layer, normalised by area and donor concentration) at 4 h, 12.5 mg/mL in data set [4] was > 1 ×10⁻⁶ cm/s.

Turning to `COc1ccc(-c2coc3cc(O)ccc3c2=O)cc1` [formononetin], in data set [5], the bioavailability (commonly dose-corrected exposure relative to a reference, in per cent) is given as 21.8%. Moreover, the Papp at 4 h, 12.5 mg/mL in data set [4] is > 1 ×10⁻⁶ cm/s. On to `O=c1c(-c2ccc(O)cc2)coc2cc(O)cc(O)c12` [genistein], for which the “Apparent permeability coefficient (Papp)” value in data set [4] is reported as “did not show such permeability”.
